In patent publication US20170056422A1, “PLASMODIUM LIVER-STAGE INHIBITORS AND RELATED METHODS” (Seattle Biomedical Research Institute, priority 2014, published 2017):
“Also recorded” adds a separate entry of the source. Where two headings read alike, the source gives them in different places.

What was measured:
P. yoelii LS parasites [1] = assay: Quantification of LS parasites in P. yoelii-infected Hepa 1-6 cells by manual counting; type: cell-based, Plasmodium yoelii; settings: for LS burden: 100 nM, 24 or 48 hours; for effect of adding pan-caspase inhibitor qVD-OPh on the LS reduction by the drug: qVD-OPh 20 μM
Method: Quantification of LS parasites after ABT-737, ABT-199, Obatoclax, Nutlin-3, or Serdemetan treatment by manual counting. In all, 1.5×10^5 Hepa 1-6 cells were seeded in DMEM complete medium in each well of an eight-well Permanox slide. Cells were infected with 5×10^4 P. yoelii sporozoites. Slides were centrifuged for 3 min at 515× g in a hanging-bucket centrifuge to aid in sporozoite invasion. After 90 min, we removed media that contained sporozoites that had not infected the cells and added fresh media only, or media containing ABT-737 (100 nM), ABT-199 (100 nM), Obatoclax (100 nM), Nutlin-3 (20 μM), or Serdemetan (10 μM) with or without qVD-OPh (20 μM). We allowed LSs to develop for 24 hours or 48 hours, at which time cells were fixed with 4% paraformaldehyde, blocked, and permeabilized for 1 hour in PBS with the addition of 0.1% Triton X-100 and 2% BSA. Staining steps were performed in PBS supplemented with 2% BSA. We stained cells using anti-sera to Plasmodium HSP70 and UIS4 proteins at 4° C. overnight and then washed several times, and antibodies were visualized with the use of AlexaFluor-488 goat anti-mouse and AlexaFluor-594 goat anti-rabbit secondary antibody (Life Technologies, Grand Island, N.Y., USA). We used DAPI stain to visualize both hepatocyte and parasite nuclei. Sporozoites that had not invaded and/or developed in hepatoma cells were distinguished by UIS4 circumferential staining and morphology. All LS parasites in each well were counted, and each assay was performed in biological triplicate.

p53 = assay: Quantification of p53 by Western blotting in Hepa 1-6 cells; type: cell-based; settings: immunoblot, 24 or 48 hours
Method: Quantification of p53 by Western Blotting. We plated 10^6 Hepa 1-6 cells per well of a 6-well plate in DMEM complete media and treated with complete media only, 20 μM Nutlin-3, 100 nM ABT-737, 100 nM Obatoclax, or 10 μM Serdemetan for 24 or 48 hours. Cells were lysed in SDS lysis buffer (2% SDS, 50 mM Tris-HCl, 5% glycerol, 5 mM EDTA, 1 mM NaF, 10 mM β-glycerophosphate, 1 mM PMSF, 1 mM activated Na3VO4, 1 mM DTT, 1% phosphatase inhibitor cocktail 2; Sigma-Aldrich), 1% PhosSTOP Phosphatase Inhibitor Cocktail Tablet (Roche), filtered overnight at 3000 rpm through AcroPrep Advance Filter Plates (Pall Corporation) and stored at −80° C. Western blots were performed according to manufacturer instruction with the iBlot Dry Transfer System (Life Technologies, Carlsbad, Calif., USA) using an antibody to p53 (Clone 1C12; Cell Signaling Technology) and then normalized to signal from an anti-β-actin (Cell Signaling Technology) Western blot. Signals from immunoblots were detected using either an Alexa 680-conjugated anti-rabbit antibody or an Alexa 800-conjugated anti-mouse antibody (LI-COR Biosciences). Membranes were visualized using an Odyssey infrared imaging system (LI-COR Biosciences).

Hepa 1-6 cells [2] = assay: Cell permeabilization (cell death) assay, flow cytometry; type: cell-based; settings: 48 hour treatment
Method: Cell Permeabilization Assay. Hepa 1-6 cells were seeded in a 24-well tissue culture-treated plate at 3×10^5 cells per well overnight. […] Briefly, cells were stained live with reconstituted dye (1:500) in 500 μL PBS on ice for 30 minutes, mixing periodically, washed twice with 500 μL PBS, and then fixed with 100 μL BD Cytofix/Cytoperm™ fixation/permeabilization (BD Biosciences, San Jose, Calif., USA) solution for 15 minutes on ice. Cells were stored in 200 μL 5 mM EDTA in PBS at 4° C. until analyzed using a BD™ LSR II flow cytometer (BD Biosciences) at 605 nm on the violet 405 nm laser, and resulting FCS files were analyzed with FlowJo 7.6.1 (Tree Star, Ashland, Oreg., USA).

P. yoelii [3] = assay: Specific action of Nutlin-3 in vivo, patency in wild-type and liver-specific p53 knockout mice; settings: 1000 spz
Description: Specific Action of Nutlin-3 in vivo experiment. Liver-specific p53 knock-out mice were generated by breeding p53 floxed mice (B6.129P2-Trp53tm1Brn/J) and cre-albumin (B6.Cg-Tg(Alb-cre)21Mgn/J). P53 floxed/unfloxed alleles were identified by size of band on a 2% agarose gel (270 bp for WT, 390 bp for floxed) using the primers: forward—[…] (SEQ ID NO:1) and reverse—[…] (SEQ ID NO:2). Cre was identified by the presence/absence of the mutant allele (heterozygotes vs. homozygotes were not distinguished) using the primers: forward—[…] (SEQ ID NO:3) and reverse—[…] (SEQ ID NO:4). All DNA was extracted using Qiagen DNEasy Blood & Tissue Kit (Qiagen Inc., Valencia, Calif., USA) per manufacturer's protocol. PCR was performed using BioMix Red (2×) from BioLine (BioLine USA Inc., Taunton, Mass., USA).
Both wild-type p53 (cre-alb) and liver-specific p53 knockout mice (cre-alb/flox-p53) were treated with either vehicle or Nutlin-3 as described in the previous in vivo method. On the second day of treatment, all mice were infected i.v. with 1000 P. yoelii sporozoites. Patency was checked by Giemsa-stained thin blood smear daily until all mice became patent. Animal handling was conducted according to the Institutional Animal Care and Use Committee-approved protocols.

P. yoelii [4] = assay: Nutlin-3 and Obatoclax in vivo, blood stage patency in BALB/cJ mice; settings: Nutlin-3 200 mg/kg twice daily, Obatoclax 5 mg/kg once daily; 1000 or 100 spz i.v.
Method: Nutlin-3 and Obatoclax in vivo experiments. 60 BALB/cJ mice (Jackson Laboratory, Bar Harbor, Me., USA) were treated with either vehicle control 5 mg/kg of Obatoclax, 200 mg/kg Nutlin-3, or both Obatoclax and Nutlin-3 by oral gavage once (Obatoclax) or twice (Nutlin-3) daily for 3 days. On the second day of treatment, mice were injected with 1000 or 100 P. yoelii sporozoites. Patency was checked by Giemsa-stained thin blood smear daily for the first 7 days, then every other day until day 14. Animal handling was conducted according to the Institutional Animal Care and Use Committee-approved protocols.

[5] = cited from earlier work
P. yoelii LS parasites [6] = assay: Quantification of LS parasites in P. yoelii-infected Hepa 1-6 cells by manual counting; type: cell-based, Plasmodium yoelii; settings: Serdemetan 10 μM for 24 hours both before and after infection
[7] = reportedly; cited from earlier work
Hepa 1-6 cells [8] = assay: Apoptosis in Hepa 1-6 cells (data not shown); type: cell-based

Row | Compound | LS burden (P. yoelii LS parasites [1]) | effect of adding pan-caspase inhibitor qVD-OPh on the LS reduction by the drug (P. yoelii LS parasites [1]) | p53 protein levels (p53) | uninfected hepatoma cell death (Hepa 1-6 cells [2]) | further results
1 | CC1(C)CCC(CN2CCN(c3ccc(C(=O)NS(=O)(=O)c4ccc(NCC5CCOCC5)c([N+](=O)[O-])c4)c(Oc4cnc5[nH]ccc5c4)c3)CC2)=C(c2ccc(Cl)cc2)C1 [ABT-199] | minimal decrease; also recorded: did not reduce LS burden |  |  |  | 
2 | CN(C)CC[C@H](CSc1ccccc1)Nc1ccc(S(=O)(=O)NC(=O)c2ccc(N3CCN(Cc4ccccc4-c4ccc(Cl)cc4)CC3)cc2)cc1[N+](=O)[O-] [ABT-737] | efficiently eliminates parasites | almost completely reversed | do not increase p53 levels | no increase | 
3 | COc1ccc(C2=N[C@@H](c3ccc(Cl)cc3)[C@@H](c3ccc(Cl)cc3)N2C(=O)N2CCNC(=O)C2)c(OC(C)C)c1 [Nutlin-3] |  | completely unaltered | substantially boosted | no increase | onset of patency (P. yoelii [3]; cre-Alb (wild-type p53) mice, 200 mg/kg twice daily oral gavage): highly effective; onset of patency (P. yoelii [3]; liver-specific p53 knockout mice (p53-flox/cre-Alb), 200 mg/kg twice daily): did not delay the onset of patency; liver stage parasites eliminated (P. yoelii LS parasites [1]; Nutlin-3 20 μM, 48 hours): 97%; onset of patency (P. yoelii [4]): delay in the onset of patency
4 | COC1=CC(c2cc3ccccc3[nH]2)=N/C1=C\c1[nH]c(C)cc1C [Obatoclax] |  |  |  | no increase | tolerability in humans ([5]; human, in vivo): well-tolerated
5 | c1ccc2c(CCNc3ccc(Nc4ccncc4)cc3)c[nH]c2c1 [Serdemetan] |  | did not reverse | substantially boosted |  | LS parasites (P. yoelii LS parasites [6]): completely eliminated; tolerability in humans ([5]; clinical trials): well-tolerated; P. yoelii LS burden versus Serdemetan concentration (P. yoelii LS parasites [1]; 48 hours): dose-dependent manner; LS-infected hepatocytes eliminated (P. yoelii LS parasites [1]; in vitro, half the dose of Nutlin-3): more than 90%; toxicity compared with Nutlin-3 [7]: lower toxicity
6 | CC(C)[C@H](NC(=O)c1ccc2ccccc2n1)C(=O)N[C@@H](CC(=O)O)C(=O)COc1c(F)cccc1F [qVD-OPh, N-(2-Quinolyl)-L-valyl-L-aspartyl-(2,6-difluorophenoxy) methylketone] |  |  |  |  | apoptosis in Hepa 1-6 cells (Hepa 1-6 cells [8]): reverses nearly all apoptosis
